Results: patent US12297224B2, “Crystal form, preparation method, and application of 4'-substituted nucleoside” (Henan Genuine Biotech Co., Ltd., priority 2018, dated 2025)
Read-outs that look alike come from different tables or passages of the source.

Legend:
[1] = Drug concentration in PBMC after oral administration in rhesus monkeys; type: in vivo; parameters: concentration of Ig-TP in PBMC: unit not given here; details: for Drug concentration in PBMC, Compound 3TC-TP: oral 3TC 20 mg/kg
Method: The PBMC was separated from the remaining venous blood with Ficoll-Paque separation medium, condensed to 0.3 mL of cell suspension, counted, and stored frozen below −20° C.
The PBMC sample was crushed with an ultrasonic cell crusher, followed by addition of 3 times volume of acetonitrile, vortexed for 60 seconds, followed by 1 volume of the water, vortexed for 60 seconds, and centrifuged at 3000 rpm for 5 minutes; the supernatant was aspirated, transferred into a 10 mL round-bottom glass tube, dried in a stream of nitrogen at 40° C., and redissolved in 500 μL of methanol solution (methanol: water=2:8 (v/v)); the resulting solution was vortexed for 60 seconds, transferred into a 1.5 mL EP tube, centrifuged at 13000 rpm for 5 minutes, filtered, and centrifuged to obtain […] of supernatant for […] analysis.

[2] = test system: HIV-1 (HIV-luc/JRFL); test: microbe, parasite or virus in culture; type: cell-based; details: for EC50: read-out: anti-HIV activity EC50 (50% effective concentration)
Text: The plasmids used for packaging pseudotyped single-cycle infectious HIV-1 (HIV-luc/JRFL) are as follows: the plasma pLAI-Aenv-Luc contains HIV-1 isolate in which Env and Vpr genes are deleted and luciferase gene is inserted into the Nef locus; and the plasma pJRFL contains CCR5-tropic HIV-1 env gene; the two plasmas are co-transfected into HEK293T cells; the supernatant was collected, filtered, and packaged; and the virion capture was quantified by […] ELISA.
CD4^+ T cells (Hut/CCR5) were cultured in RPMI 1640 medium (Gibco) containing 10% fetal bovine serum (Gibco), 100 U/mL penicillin (Invitrogen), and 100 […] (Invitrogen). 1×10^5 Hut/CCR5 cells were added to the compound Ia or Ib, infected with HIV-luc/JRFL (1 ng p24gag), incubated at 37° C. for 3 hours, washed to remove free virus, and resuspended in cell culture medium, followed by addition of the corresponding compound to be tested, incubated at 37° C. for 3 days, and collected for measurement of the luciferase activity and calculation of the percentage of viral inhibition.
CD4^+ T cells (Hut/CCR5) were cultured in 1640 medium (Gibco) containing 10% fetal bovine serum (Gibco), 100 U/mL penicillin (Invitrogen), and 100 […] (Invitrogen). 1×10^5 Hut/CCR5 cells were added to the compound Ig-TP (CL-002-TP), infected with HIV-luc/JRFL (1 ng p24gag), incubated at 37° C. for 3 hours, washed to remove free virus, and resuspended in cell culture medium, followed by addition of the corresponding compound to be tested, incubated at 37° C. for 3 days, and collected for measurement of the luciferase activity and calculation of the percentage of virus inhibition.

[3] = in vitro; type: cell-based; details: human
Method: (§1) CD4^+ T cells (Hut/CCR5) were plated into the wells of a 96-well plate ([…]), followed by addition of different compounds to be tested; the 96-well plate was incubated at 37° C. in an incubator for 3 days; 20 μL of MTT solution was added into the wells ([…]) of the 96-well plate; the 96-well plate was incubated at 37° C. in the incubator for 4 hours; 100 μL of Formazan solution was added into the wells of the 96-well plate; the 96-well plate was incubated at 37° C. in the incubator until the complete dissolution of Formazan was observed by a common optical microscope; and the absorbance of the solution was measured at 570 nm (as shown in FIGS. 2 and 4).
(§2) The cytotoxicity of the compound Ig-TP on CD4^+ T cells (Hut/CCR5) was measured using MTT assay.

[4] = Drug concentration in plasma after oral administration in rhesus monkeys; type: in vivo; details: oral 6 mg/kg compound Ia, 24 hours
[5] = test system: CD4+ T cells (Hut/CCR5); test: in vitro; type: cell-based
Method: as §1, §2

[6] = test system: HIV; details: literature (Michailidis et al 2009); read-out: anti-HIV EC50; cited from earlier work
[7] = Human immunodeficiency virus 1, Hut/CCR5, 72 h

## Nc1ccn([C@@H]2CS[C@H](COP(=O)(O)OP(=O)(O)OP(=O)(O)O)O2)c(=O)n1 [Compound 3TC-TP, reference compound]
[1]; 1 h
  Drug concentration in PBMC, Compound 3TC-TP: 0.51 pmol/10^6 cells
[1]; 6 h
  Drug concentration in PBMC, Compound 3TC-TP: 2.45 pmol/10^6 cells

## C#CC1(CO)OC(n2cnc3c(N)nc(F)nc32)C(F)C1O (stereo not drawn) [Compound Ia]
[2]; [7]
  EC50: 0.9 nM
[3]
  CC50 at 3 days: > 8000 nM
[4]
  compound Ia in plasma: undetectable

## [N-]=[N+]=NC1(COP(=O)(O)OP(=O)(O)OP(=O)(O)O)OC(n2ccc(N)nc2=O)CC1O (stereo not drawn) [Compound Ig-TP]
[2]; Hut/CCR5 cells, HIV-luc/JRFL
  inhibition of HIV viral proliferation IC50: 0.373 ng/mL
[2]; Hut/CCR5 cells, HIV-luc/JRFL, 3 days
  EC50: 1.3 nM
[2]; Hut/CCR5 cells, HIV-luc/JRFL, read-out: inhibition of HIV viral proliferation IC50
  IC50: 1.3 nM
[5]
  CC50: 8130 nM
  cytotoxicity CC50: 2,328 ng/ml
[1]; oral compound Ig 1 mg/kg, 1 h
  Drug concentration in PBMC, Compound Ig-TP: 0.39 pmol/10^6 cells
[1]; oral compound Ig 1 mg/kg, 6 h
  Drug concentration in PBMC, Compound Ig-TP: 2.10 pmol/10^6 cells
[1]; oral compound Ig 1 mg/kg, 24 h
  Drug concentration in PBMC, Compound Ig-TP: 0.29 pmol/10^6 cells
[1]; oral compound Ig 1 mg/kg, 72 h
  Drug concentration in PBMC, Compound Ig-TP: 0.66 pmol/10^6 cells
[1]; oral compound Ig 1 mg/kg, 120 h
  Drug concentration in PBMC, Compound Ig-TP: 0.54 pmol/10^6 cells
[1]; oral compound Ig 6 mg/kg, 1 h
  Drug concentration in PBMC, Compound Ig-TP: 0.23 pmol/10^6 cells
[1]; oral compound Ig 6 mg/kg, 6 h
  Drug concentration in PBMC, Compound Ig-TP: 4.07 pmol/10^6 cells
[1]; oral compound Ig 6 mg/kg, 24 h
  Drug concentration in PBMC, Compound Ig-TP: 0.44 pmol/10^6 cells
[1]; oral compound Ig 6 mg/kg, 72 h
  Drug concentration in PBMC, Compound Ig-TP: 1.85 pmol/10^6 cells
[1]; oral compound Ig 6 mg/kg, 120 h
  Drug concentration in PBMC, Compound Ig-TP: 1.35 pmol/10^6 cells
[1]; rhesus monkeys, oral 6 mg/kg compound Ig, 120 hours (5 days)
  concentration of Ig-TP in PBMC: 1.35

## C#C[C@]1(CO)O[C@@H](n2cnc3c(N)ncnc32)C[C@@H]1O [EdA, 4′-ethynyl-2′-deoxyadenosine]
[6]
  EC50: 11 nM

## [N-]=[N+]=NC1(CO)OC(n2cnc3c(N)nc(F)nc32)C(F)C1O (stereo not drawn) [Ib]
[2]; [7]
  EC50: 0.62 nM
[3]
  CC50 at 3 days: > 149000 nM
